# Test results published in US20260200890A1, “ADAR1 INHIBITORS AND METHODS OF USING THE SAME” (AVAMMUNE THERAPEUTICS INC., priority 2022, published 2026).
# Biological target: T1, ADAR1 (Homo sapiens, UniProt P55265)
# T1 construct: endogenous in cells; host or cells: p110 KO A549 dual cells
# T1 sequence (P55265 1-1226): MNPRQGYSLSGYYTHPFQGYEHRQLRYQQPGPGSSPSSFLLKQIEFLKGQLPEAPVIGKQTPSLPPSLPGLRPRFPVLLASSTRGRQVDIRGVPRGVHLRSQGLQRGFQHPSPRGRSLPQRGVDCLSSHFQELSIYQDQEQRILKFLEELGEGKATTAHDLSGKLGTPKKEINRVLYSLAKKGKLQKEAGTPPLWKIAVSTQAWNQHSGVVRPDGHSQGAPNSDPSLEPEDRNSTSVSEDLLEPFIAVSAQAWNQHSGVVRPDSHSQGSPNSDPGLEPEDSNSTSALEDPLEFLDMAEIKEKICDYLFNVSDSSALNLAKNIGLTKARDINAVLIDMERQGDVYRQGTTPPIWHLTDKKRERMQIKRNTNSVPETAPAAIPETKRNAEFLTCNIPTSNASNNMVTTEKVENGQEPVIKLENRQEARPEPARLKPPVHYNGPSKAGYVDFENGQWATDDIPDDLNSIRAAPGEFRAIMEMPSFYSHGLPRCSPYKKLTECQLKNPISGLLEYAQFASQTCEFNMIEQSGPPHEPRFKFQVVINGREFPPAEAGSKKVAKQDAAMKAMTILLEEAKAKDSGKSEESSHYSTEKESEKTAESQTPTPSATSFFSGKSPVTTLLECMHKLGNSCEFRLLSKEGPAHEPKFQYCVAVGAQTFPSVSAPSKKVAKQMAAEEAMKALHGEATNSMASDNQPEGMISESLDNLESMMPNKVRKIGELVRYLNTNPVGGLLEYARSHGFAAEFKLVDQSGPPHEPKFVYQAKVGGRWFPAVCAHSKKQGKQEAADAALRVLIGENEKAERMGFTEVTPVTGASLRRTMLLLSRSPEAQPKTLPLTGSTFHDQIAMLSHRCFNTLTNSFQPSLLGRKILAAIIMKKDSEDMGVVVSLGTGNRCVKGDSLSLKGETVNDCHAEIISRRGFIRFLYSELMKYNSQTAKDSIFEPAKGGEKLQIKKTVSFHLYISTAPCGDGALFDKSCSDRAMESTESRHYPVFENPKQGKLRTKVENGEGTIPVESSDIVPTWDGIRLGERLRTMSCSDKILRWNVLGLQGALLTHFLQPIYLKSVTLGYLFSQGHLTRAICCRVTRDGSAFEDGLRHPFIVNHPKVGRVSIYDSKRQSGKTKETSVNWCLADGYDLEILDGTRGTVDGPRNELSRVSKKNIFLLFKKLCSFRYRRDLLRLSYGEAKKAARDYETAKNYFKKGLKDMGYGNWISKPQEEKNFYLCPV
# Assay: ADAR1 Inhibition Assay (IFN fold-induction, Quanti-Luc luminescence, p110 KO A549 dual cells)
# Assay type: cell-based
# Conditions: IFN fold-induction vs DMSO, 24 and 48 h
# Procedure, shortened: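 EC50 derived from IFN fold-induction, calculated as sample RLU over average DMSO RLU. Luminescence measured by Quanti-Luc on samples taken after 24 and 48 h of compound exposure (1% DMSO final, 37 °C, 5% CO2). Cells were p110 KO A549 dual, seeded at 20,000 per well in supplemented DMEM.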
row,EC50 [µM],Structure (SMILES)
1,> 100,CCOC(=O)c1cc(-c2ccccc2)[nH]c1NC(=O)COC(=O)c1cccc(NS(C)(=O)=O)c1 [Compound 352]
2,> 100,CCOC(=O)c1cc(-c2ccccc2)sc1NC(=O)Cn1cc(CN(c2cccc(N)c2)S(C)(=O)=O)nn1 [Compound 353]
3,> 100,CCOC(=O)c1sc(-c2ccccc2)cc1NC(=O)COC(=O)c1cccc(NS(C)(=O)=O)c1 [Compound 354]
4,> 100,CCOC(=O)c1cc(-c2ccccc2)sc1NC(=O)Cn1cc(CSc2cccc(NS(C)(=O)=O)c2)nn1 [Compound 360]
5,> 100,CCOC(=O)c1cc(-c2ccccc2)sc1NC(=O)Cn1cc(CS(=O)(=O)c2cccc(NS(C)(=O)=O)c2)nn1 [Compound 362]
6,> 100,CCOC(=O)c1cc(-c2ccccc2)sc1NC(=O)CNC(=O)Cc1ccc(OS(C)(=O)=O)c(NS(C)(=O)=O)c1 [Compound 368]
7,> 100,CCOC(=O)c1cc(-c2ccccc2)sc1NC(=O)CNC(=O)Cc1cccc(S(N)(=O)=O)c1 [Compound 371]
8,> 100,CCOC(=O)c1cc(-c2ccccc2)sc1NC(=O)COC(=O)c1nonc1NS(C)(=O)=O [Compound 374]
9,> 100,CCOC(=O)c1ccnc(-c2ccccc2)c1NC(=O)COC(=O)c1cccc(NS(C)(=O)=O)c1 [Compound 375]
10,> 100,CCOC(=O)c1cc(-c2ccccc2)sc1NC(=O)CNC(=O)/C=C/c1cccc(NS(C)(=O)=O)c1 [Compound 377]
11,> 100,CCOC(=O)c1cc(-c2ccccc2)sc1NC(=O)COC(=O)c1ccc2cc(NS(C)(=O)=O)ccc2c1 [Compound 378]
12,> 100,CCOC(=O)c1cc(-c2ccccc2)sc1NC(=O)COC(=O)c1cccc(S(=O)(=O)NC(C)(C)C)c1 [Compound 379]
13,> 100,CCOC(=O)c1cc(-c2ccccc2)ncc1NC(=O)COC(=O)c1cccc(P(=O)(O)O)c1 [Compound 382]
14,> 100,CCOC(=O)c1cc(P(=O)(O)O)sc1NC(=O)COC(=O)c1cccc(NS(C)(=O)=O)c1 [Compound 391]
15,50 to 100,CCOC(=O)c1cc(-c2ccccc2)sc1NC(=O)C1CCCN1C(=O)c1cccc(P(=O)(O)O)c1 (stereo not drawn) [Compound 404]
16,50 to 100,CCNC(=O)c1cc(-c2ccccc2)sc1NC(=O)CNC(=O)c1cccc(NS(C)(=O)=O)c1 [Compound 410]
17,> 100,CCOC(=O)c1cc(-c2ccccc2)sc1NC(=O)[C@@H]1CCCN1C(=O)c1cccc(P(=O)(O)O)c1 [Compound 413]
18,> 100,CCOC(=O)c1sc(-c2ccccc2)cc1NC(=O)COC(=O)c1cccc(S(N)(=O)=O)c1 [Compound 423]
19,> 100,CCOC(=O)c1cc(-c2ccccc2)sc1NC(=O)C1CCN(C(=O)c2cccc(S(N)(=O)=O)c2)C1 (stereo not drawn) [Compound 425]

# Second part, the compound before the results:
row,Structure (SMILES),EC50 [µM]
1,CCOC(=O)c1cc(-c2ccccc2)sc1NC(=O)CNC(=O)c1cccc(NS(C)(=O)=O)c1 [Compound 13],> 100
2,"CCOC(=O)c1cc(-c2ccccc2)sc1NC(=O)COC(=O)c1cccc(NS(C)(=O)=O)c1 [Compound 66, Ethyl 2-(2-((3-(methylsulfonamido)benzoyl)oxy)acetamido)-5-phenylthiophene-3-carboxylate]",≤ 25
3,CCOC(=O)c1cc(-c2ccccc2)sc1NC(=O)COC(=O)c1cccc(C(F)(F)F)c1 [Compound 70],> 100
4,CCOC(=O)c1cc(-c2ccccc2)sc1NC(=O)COC(=O)c1cccc(C#N)c1 [Compound 71],> 100
5,CCOC(=O)c1cc(-c2ccccc2)sc1NC(=O)C1CCCN1C(=O)c1cccc(S(N)(=O)=O)c1 (stereo not drawn) [Compound 72],≤ 25
6,CCOC(=O)c1cc(-c2ccccc2)sc1NC(=O)COC(=O)c1cccc(NC(C)=O)c1 [Compound 107],> 100
7,CCOC(=O)c1cc(-c2ccccc2)sc1NC(=O)COC(=O)c1cccc(NS(C)(=O)=O)c1 [Compound 121],> 100
8,CS(=O)(=O)Nc1cccc(C(=O)OCC(=O)Nc2sc(-c3ccccc3)cc2C#N)c1 [Compound 127],> 100
9,CCOC(=O)c1cc(NC(=O)COC(=O)c2cccc(NS(C)(=O)=O)c2)nn1-c1ccccc1 [Compound 347],> 100
10,CCOC(=O)c1cc(-c2ccccc2)sc1NC(=O)CNC(=O)Cc1cccc(P(=O)(OCC)OCC)c1 [Compound 348],> 100
11,CCOC(=O)c1sc(-c2ccccc2)cc1NC(=O)COC(=O)c1cccc(P(=O)(OCC)OCC)c1 [Compound 370],> 100
12,CCOC(=O)c1cc(-c2ccccc2)ncc1NC(=O)COC(=O)c1cccc(P(=O)(OCC)OCC)c1 [Compound 381],> 100
13,CCOC(=O)c1cc(-c2ccccc2)sc1NC(=O)C1CCCN1C(=O)c1cccc(P(=O)(OCC)OCC)c1 (stereo not drawn) [Compound 383],> 100
14,CCOC(=O)c1cc(-c2ccc(P(=O)(OCC)OCC)cc2)sc1NC(=O)COC(=O)c1cccc(P(=O)(OCC)OCC)c1 [Compound 390],> 100
15,CCOC(=O)c1cc(-c2ccccc2)sc1NC(=O)CN(C)C(=O)c1cccc(P(=O)(OCC)OCC)c1 [Compound 392],50 to 100
16,CCOC(=O)c1cc(-c2ccccc2)sc1NC(=O)[C@@H]1CCCN1C(=O)c1cccc(P(=O)(OCC)OCC)c1 [Compound 393],> 100
17,CCOC(=O)c1cc(-c2ccccc2)sc1NC(=O)[C@H]1CCCN1C(=O)c1cccc(P(=O)(OCC)OCC)c1 [Compound 394],> 100
18,CCOC(=O)c1cc(-c2ccccc2)sc1NC(=O)Cn1cc(CNC(=O)c2cccc(P(=O)(OCC)OCC)c2)nn1 [Compound 401],> 100
19,CCOC(=O)c1nc(-c2ccccc2)oc1NC(=O)COC(=O)c1cccc(P(=O)(OCC)OCC)c1 [Compound 407],50 to 100
20,CCOC(=O)c1cc(-c2ccccc2)[nH]c1NC(=O)CNC(=O)c1cccc(P(=O)(OCC)OCC)c1 [Compound 408],50 to 100
21,CCOC(=O)c1cc(-c2ccccc2)sc1NC(=O)COC(=O)c1cccc(OP(=O)(N[C@H](C)C(=O)OC(C)C)Oc2ccccc2)c1 (stereo partly drawn) [Compound 411],> 100
22,CCOC(=O)c1cc(-c2ccccc2)sc1NC(=O)Cn1cc(C(=O)Nc2cccc(P(=O)(OCC)OCC)c2)nn1 [Compound 417],> 100
23,CCOC(=O)c1cc(-c2ccc(P(=O)(OCC)OCC)cc2)sc1NC(=O)COC(=O)c1cccc(S(N)(=O)=O)c1 [Compound 429],> 100

# Biological target: T2, Zα domain of ADAR1 p150 (Homo sapiens, UniProt P55265)
# T2 construct: 10 μg/ml of Zα domain of ADAR1 was immobilized on CM5 chip using anti-HIS antibody; made in house
# T2 sequence (P55265 133-199 limits assumed): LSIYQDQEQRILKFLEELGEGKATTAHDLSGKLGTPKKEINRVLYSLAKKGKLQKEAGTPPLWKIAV
# Assay: SPR binding assay
# Conditions: 6× his tag Zα domain immobilized on CM5 chip, analyte 0-25 μM
# Description: 6× his tag Za domain of ADAR1 p150 was purified using bacterial purification system. Protein was isolated from supernatant of cell lysate using Ni-NTA resin. For binding assay using SPR, 10 μg/ml of Zα domain of ADAR1 was immobilized on CM5 chip using anti-HIS antibody. Binding was quantified using the following condition below: • Analyte: 25, 12.5, 6.25, 3.125, 1.56, 0.78, 0 μM • Contact time—60 seconds, • Dissociation time—320 seconds • Flow rate—30 μL/minute Running buffer-PBSP+5% DMSO • After curve fitting, Kd values for synthesized compounds was quantified using the instrument software.
row,Kd [µM],Structure (SMILES)
1,1 to 10,CCOC(=O)c1sc(-c2ccccc2)cc1NC(=O)CNC(=O)Cc1cccc(NS(C)(=O)=O)c1 [Compound 357]
2,≤ 1,CCOC(=O)c1cc(-c2ccccc2)sc1NC(=O)CNC(=O)CCc1cccc(P(=O)(O)O)c1 [Compound 432]
3,≤ 1,CCOC(=O)c1cc(-c2ccccc2)sc1NC(=O)CN(C)C(=O)c1cccc(P(=O)(O)O)c1 [Compound 435]
4,≤ 1,CCOC(=O)c1cc(-c2ccccc2)sc1NC(=O)CNC(=O)c1cccc(C(=O)O)c1 [Compound 439]

# The next lines start with the compound.
row,Structure (SMILES),Kd [µM]
1,CCOC(=O)c1cc(-c2ccccc2)sc1NC(=O)CNC(=O)c1cccc(NS(C)(=O)=O)c1 [Compound 13],≤ 1
2,"CCOC(=O)c1cc(-c2ccccc2)sc1NC(=O)COC(=O)c1cccc(NS(C)(=O)=O)c1 [Compound 66, Ethyl 2-(2-((3-(methylsulfonamido)benzoyl)oxy)acetamido)-5-phenylthiophene-3-carboxylate]",≤ 1
3,CCOC(=O)c1cc(-c2ccccc2)sc1NC(=O)COC(=O)c1cccc(C(F)(F)F)c1 [Compound 70],> 25
4,CCOC(=O)c1cc(-c2ccccc2)sc1NC(=O)COC(=O)c1cccc(C#N)c1 [Compound 71],≤ 1
5,CCOC(=O)c1cc(-c2ccccc2)sc1NC(=O)C1CCCN1C(=O)c1cccc(S(N)(=O)=O)c1 (stereo not drawn) [Compound 72],1 to 10
6,CCOC(=O)c1cc(-c2ccccc2)sc1NC(=O)COC(=O)c1cccc(NC(C)=O)c1 [Compound 107],≤ 1
7,CCOC(=O)c1cc(-c2ccccc2)sc1NC(=O)COC(=O)c1cccc(NS(C)(=O)=O)c1 [Compound 121],≤ 1
8,CS(=O)(=O)Nc1cccc(C(=O)OCC(=O)Nc2sc(-c3ccccc3)cc2C#N)c1 [Compound 127],≤ 1
9,CCOC(=O)c1cc(-c2ccccc2)sc1NC(=O)COC(=O)c1cccc(OS(=O)(=O)F)c1 [Compound 302],≤ 1
10,CCOC(=O)c1cc(-c2ccccc2)sc1NC(=O)CNC(=O)CCc1cccc(P(=O)(OCC)OCC)c1 [Compound 436],≤ 1
11,CCNC(=O)c1cc(-c2ccccc2)sc1NC(=O)CNC(=O)c1ccc(P(=O)(OCC)OCC)cc1 [Compound 437],≤ 1
